As usually defined, the EC50 is the concentration giving half of the maximal effect.

This note sets out measurements from patent US11254663B2 (BRISTOL-MYERS SQUIBB COMPANY, priority 2019, dated 2022).

Molecules are shown by their SMILES.

The experiment deals with FXR (Homo sapiens (Human), UniProt Q96RI1). Kind of experiment: FXR EC50 (FXR agonist potency reported with each Example). The experiment is classed as cell-based.
Chain of FXR (Q96RI1 262-486): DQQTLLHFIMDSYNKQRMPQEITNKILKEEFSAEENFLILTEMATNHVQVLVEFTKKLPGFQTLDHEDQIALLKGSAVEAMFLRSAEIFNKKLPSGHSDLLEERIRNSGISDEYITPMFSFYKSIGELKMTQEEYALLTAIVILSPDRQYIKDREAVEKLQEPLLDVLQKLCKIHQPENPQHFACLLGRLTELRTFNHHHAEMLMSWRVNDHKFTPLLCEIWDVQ

In turn, `O=C(N(CC12CCC(c3nc(C4CC4)co3)(CC1)CC2)c1cccc(-c2cnc(C3CC3)o2)c1)C12CC(F)(C1)C2` [Example 82, N-((4-(4-cyclopropyloxazol-2-yl)bicyclo[2.2.2]octan-1-yl)methyl)-N-(3-(2-cyclopropyloxazol-5-yl)phenyl)-3-fluorobicyclo[1.1.1]pentane-1-carboxamide] gave a half-maximal effective concentration (EC50) of 48 nM. This lies in the double-digit nanomolar range.
`O=C(C1CC(C(F)F)C1)N(CC12CCC(c3nc(C4CC4)no3)(CC1)OC2)c1cccc(-c2cc(C3CC3)on2)c1` (stereo not drawn) [Example 201, N-((1-(3-cyclopropyl-1,2,4-oxadiazol-5-yl)-2-oxabicyclo[2.2.2]octan-4-yl)methyl)-N-(3-(5-cyclopropylisoxazol-3-yl)phenyl)-3-(difluoromethyl)cyclobutane-1-carboxamide] gave an EC50 of 384 nM. This EC50 is about 8-fold higher than that of the compound before.
As for `O=C(C1CC(F)(F)C1)N(CC12CCC(c3nc(C4CC4)no3)(CC1)CC2)c1cccc(-c2nnc(C3CC3)o2)c1` [Example 87, N-((4-(3-cyclopropyl-1,2,4-oxadiazol-5-yl)bicyclo[2.2.2]octan-1-yl)methyl)-N-(3-(5-cyclopropyl-1,3,4-oxadiazol-2-yl)phenyl)-3,3-difluorocyclobutane-1-carboxamide], the figure is 712 nM; as for `O=C(N(CC12CCC(c3noc(C(F)F)n3)(CC1)CC2)c1cccc(-c2nnc(C3CC3)o2)c1)C12CC(F)(C1)C2` [Example 156, N-(3-(5-cyclopropyl-1,3,4-oxadiazol-2-yl)phenyl)-N-((4-(5-(difluoromethyl)-1,2,4-oxadiazol-3-yl)bicyclo[2.2.2]octan-1-yl)methyl)-3-fluorobicyclo[1.1.1]pentane-1-carboxamide], 103 nM; as for `COc1cc(-c2cccc(N(CC34CCC(c5ccc(C(C)(C)C#N)cc5)(CC3)OC4)C(=O)C3CCC3)c2)ccn1` [Example 223, N-((1-(4-(2-cyanopropan-2-yl)phenyl)-2-oxabicyclo[2.2.2]octan-4-yl)methyl)-N-(3-(2-methoxypyridin-4-yl)phenyl)cyclobutanecarboxamide], 313 nM.
As for `CC(C)(O)c1coc(-c2cccc(N(CC34CCC(c5nc(C6CC6)no5)(CC3)CC4)C(=O)C3CCC(F)(F)C3)c2)n1` (stereo not drawn) [Example 18, N-((4-(3-cyclopropyl-1,2,4-oxadiazol-5-yl)bicyclo[2.2.2]octan-1-yl)methyl)-3,3-difluoro-N-(3-(4-(2-hydroxypropan-2-yl)oxazol-2-yl)phenyl)cyclopentane-1-carboxamide], the figure is 154 nM; as for `CN(C)[C@H]1CCN(C(=O)N(CC23CCC(c4nc(C5CC5)no4)(CC2)CC3)c2cccc(-c3nc(C4CC4)no3)c2)C1` [Example 93, (S)—N-((4-(3-cyclopropyl-1,2,4-oxadiazol-5-yl)bicyclo[2.2.2]octan-1-yl)methyl)-N-(3-(3-cyclopropyl-1,2,4-oxadiazol-5-yl)phenyl)-3-(dimethylamino)pyrrolidine-1-carboxamide], 2690 nM; as for `O=C(C1CC(F)(F)C1)N(CC12CCC(c3nnc(C4CC4)o3)(CC1)CC2)c1cccc(-c2nnc(C3CC3)o2)c1` [Example 135, N-((4-(5-cyclopropyl-1,3,4-oxadiazol-2-yl)bicyclo[2.2.2]octan-1-yl)methyl)-N-(3-(5-cyclopropyl-1,3,4-oxadiazol-2-yl)phenyl)-3,3-difluorocyclobutane-1-carboxamide], 1110 nM.
For `O=C(N(CC12CCC(c3nnc(C4CC4)o3)(CC1)CC2)c1cccc(-c2nc(C3CC3)no2)c1)C12CC(F)(C1)C2` [Example 137, N-(3-(3-cyclopropyl-1,2,4-oxadiazol-5-yl)phenyl)-N-((4-(5-cyclopropyl-1,3,4-oxadiazol-2-yl)bicyclo[2.2.2]octan-1-yl)methyl)-3-fluorobicyclo[1.1.1]pentane-1-carboxamide], the EC50 amounted to 43 nM.
As for `O=C(C1CCC1)N(CC12CCC(c3nc(C4CC4)no3)(CC1)CC2)c1cccc(-c2cnc(C3CC3)o2)c1` [Example 20, N-((4-(3-cyclopropyl-1,2,4-oxadiazol-5-yl)bicyclo[2.2.2]octan-1-yl)methyl)-N-(3-(2-cyclopropyloxazol-5-yl)phenyl)cyclobutanecarboxamide], the figure is 138 nM.
As for `CCOc1nnc(-c2cccc(N(CC34CCC(c5nc(C6CC6)no5)(CC3)CC4)C(=O)C34CC(F)(C3)C4)c2)o1` [Example 53, N-((4-(3-cyclopropyl-1,2,4-oxadiazol-5-yl)bicyclo[2.2.2]octan-1-yl)methyl)-N-(3-(5-ethoxy-1,3,4-oxadiazol-2-yl)phenyl)-3-fluorobicyclo[1.1.1]pentane-1-carboxamide], the figure is 81 nM; as for `O=C(N(CC12CCC(c3nc(C4CC4)no3)(CC1)CC2)c1cccc(-c2csc(CCl)n2)c1)C12CC(F)(C1)C2` [Example 30, N-(3-(2-(chloromethyl)thiazol-4-yl)phenyl)-N-((4-(3-cyclopropyl-1,2,4-oxadiazol-5-yl)bicyclo[2.2.2]octan-1-yl)methyl)-3-fluorobicyclo[1.1.1]pentane-1-carboxamide], 112 nM.
As for `O=C(N(CC12CCC(c3noc(C4(C(F)(F)F)CC4)n3)(CC1)CC2)c1cccc(-c2nc(C3CC3)no2)c1)C12CC(F)(C1)C2` [Example 118, N-(3-(3-cyclopropyl-1,2,4-oxadiazol-5-yl)phenyl)-3-fluoro-N-((4-(5-(1-(trifluoromethyl)cyclopropyl)-1,2,4-oxadiazol-3-yl)bicyclo[2.2.2]octan-1-yl)methyl) bicyclo[1.1.1]pentane-1-carboxamide], the figure is 30 nM.
Compound `CC1(c2nc(-c3cccc(N(CC45CCC(c6nc(C7CC7)no6)(CC4)CC5)C(=O)C45CC(F)(C4)C5)c3)no2)CC1` [Example 106, N-((4-(3-cyclopropyl-1,2,4-oxadiazol-5-yl)bicyclo[2.2.2]octan-1-yl)methyl)-3-fluoro-N-(3-(5-(1-methylcyclopropyl)-1,2,4-oxadiazol-3-yl)phenyl)bicyclo[1.1.1]pentane-1-carboxamide] yielded a concentration giving a half-maximal response (EC50) of 58 nM.
`O=C(N(CC12CCC(c3noc(C4(C(F)(F)F)CC4)n3)(CC1)CC2)c1cccc(-c2cn[nH]c2)c1)C12CC(F)(C1)C2` [Example 209, N-(3-(1H-pyrazol-4-yl)phenyl)-3-fluoro-N-((4-(5-(1-(trifluoromethyl)cyclopropyl)-1,2,4-oxadiazol-3-yl)bicyclo[2.2.2]octan-1-yl)methyl)bicyclo[1.1.1]pentane-1-carboxamide] showed an EC50 of 152 nM.
As for `O=C(C1CCC(F)(F)C1)N(CC12CCC(c3nc(C4CC4)no3)(CC1)CC2)c1cccc(-c2nc(C(F)F)co2)c1` (stereo not drawn) [Example 44, N-((4-(3-cyclopropyl-1,2,4-oxadiazol-5-yl)bicyclo[2.2.2]octan-1-yl)methyl)-N-(3-(4-(difluoromethyl)oxazol-2-yl)phenyl)-3,3-difluorocyclopentane-1-carboxamide], the figure is 646 nM; as for `CCCc1ncc(-c2cccc(N(CC34CCC(c5nc(C6CC6)no5)(CC3)CC4)C(=O)C34CC(F)(C3)C4)c2)o1` [Example 26, N-((4-(3-cyclopropyl-1,2,4-oxadiazol-5-yl)bicyclo[2.2.2]octan-1-yl)methyl)-3-fluoro-N-(3-(2-propyloxazol-5-yl)phenyl)bicyclo[1.1.1]pentane-1-carboxamide], 72 nM; as for `CC(C)(O)c1coc(-c2cccc(N(CC34CCC(c5nc(C6CC6)no5)(CC3)CC4)C(=O)C3CC(C(F)F)C3)c2)n1` (stereo not drawn) [Example 17, N-((4-(3-cyclopropyl-1,2,4-oxadiazol-5-yl)bicyclo[2.2.2]octan-1-yl)methyl)-3-(difluoromethyl)-N-(3-(4-(2-hydroxypropan-2-yl)oxazol-2-yl)phenyl)cyclobutane-1-carboxamide], 309 nM.
As for `Cc1cnc(C23CCC(CN(C(=O)C4CCC(F)(F)C4)c4cccc(-c5nc(C6CC6)no5)c4)(CC2)CC3)o1` (stereo not drawn) [Example 39, N-(3-(3-cyclopropyl-1,2,4-oxadiazol-5-yl)phenyl)-3,3-difluoro-N-((4-(5-methyloxazol-2-yl)bicyclo[2.2.2]octan-1-yl)methyl)cyclopentane-1-carboxamide], a half-maximal effect (EC50) was put at 308 nM.
With `CC(C)(C)c1nc(C23CCC(CN(C(=O)C45CC(F)(C4)C5)c4cncc(-c5nc(C6CC6)no5)c4)(CC2)CC3)no1` [Example 206, N-((4-(5-(tert-butyl)-1,2,4-oxadiazol-3-yl)bicyclo[2.2.2]octan-1-yl)methyl)-N-(5-(3-cyclopropyl-1,2,4-oxadiazol-5-yl)pyridin-3-yl)-3-fluorobicyclo[1.1.1]pentane-1-carboxamide], a half-maximal response (EC50) required 49 nM.
`O=C(N(CC12CCC(c3nc(C4CC4)no3)(CC1)CC2)c1cccc(-c2cnc(C3CCOCC3)o2)c1)C12CC(F)(C1)C2` [Example 35, N-((4-(3-cyclopropyl-1,2,4-oxadiazol-5-yl)bicyclo[2.2.2]octan-1-yl)methyl)-3-fluoro-N-(3-(2-(tetrahydro-2H-pyran-4-yl)oxazol-5-yl)phenyl)bicyclo[1.1.1]pentane-1-carboxamide] gave a concentration for a half-maximal effect (EC50) of 251 nM.
`CC(C)(C)c1nc(-c2cccc(N(CC34CCC(c5nc(C6CC6)no5)(CC3)CC4)C(=O)C34CC(F)(C3)C4)c2)no1` [Example 107, N-(3-(5-(tert-butyl)-1,2,4-oxadiazol-3-yl)phenyl)-N-((4-(3-cyclopropyl-1,2,4-oxadiazol-5-yl)bicyclo[2.2.2]octan-1-yl)methyl)-3-fluorobicyclo[1.1.1]pentane-1-carboxamide] came in with an EC50 of 18 nM.
With `COc1cc(-c2cccc(N(CC34CCC(c5ccc(C(C)(C)C#N)cc5)(CC3)OC4)C(=O)C3CCCC3)c2)ccn1` [Example 224, N-((1-(4-(2-cyanopropan-2-yl)phenyl)-2-oxabicyclo[2.2.2]octan-4-yl)methyl)-N-(3-(2-methoxypyridin-4-yl)phenyl)cyclopentanecarboxamide], the concentration for a half-maximal effect (EC50) worked out at 894 nM.
As for `O=C(N(CC12CCC(c3nc(C(F)F)no3)(CC1)CC2)c1cccc(-c2noc(C3CC3)n2)c1)C12CC(F)(C1)C2` [Example 172, N-(3-(5-cyclopropyl-1,2,4-oxadiazol-3-yl)phenyl)-N-((4-(3-(difluoromethyl)-1,2,4-oxadiazol-5-yl)bicyclo[2.2.2]octan-1-yl)methyl)-3-fluorobicyclo[1.1.1]pentane-1-carboxamide], the figure is 154 nM.
